Reference: patent US7888319B2, “Compositions and methods for promoting wound healing and tissue regeneration” (MUSC Foundation for Research Development, priority 2004, dated 2011)

Test system: WB-F344 cells
Test: Scratch injury of WB-F344 cell lines stably expressing ACT-peptide-encoding polynucleotide
Assay type: cell-based, rat
Conditions: stable expression with GFP, 24 hours after scratch, vs GFP-only cell line
Source text: WB-F344 cells are a transformed rat epithelial cell line derived by treatment of isolated rat liver cells with a cancer-causing agent (Tsao et al., 1984; Hayashi et al., 1997; Hayashi et al., 1998; Hayashi et al., 2001). WB-F344 cells were transfected with a cDNA expression plasmid construct and selected under antibiotic using standard protocols to generate cell lines that stably expressed an ACT-peptide-encoding-polynucleotide (SEQ ID NO:6) operably linked to a promoter sequence or a green fluorescent protein (GFP) polynucleotide operably linked to a promoter sequence as a control. The polynucleotide encoding the ACT peptide also encoded GFP. As such, expression of the ACT peptide could be assayed by standard GFP fluorescence optics on a light microscope. (a) and (b) show high magnification images of GFP fluorescence in WB-F344 cell lines expressing GFP plus the carboxy terminus ACT peptide sequence (a) or GFP alone (b). Near confluent monolayers of the WB-F344 cell lines were “scratch injured” and allowed to “heal” for 24 hours. […]
WB-F344 cells are a transformed rat epithelial cell line derived by treatment of isolated rat liver cells with a cancer-causing agent (Tsao et al., 1984; Hayashi et al., 1997; Hayashi et al., 1998; Hayashi et al., 2001). […] As such, expression of the ACT peptide could be assayed by standard GFP fluorescence optics on a light microscope. […]

aga cct cgg cct gat gac ctg gag att (DNA AGACCTCGGCCTGATGACCTGGAGATT; expressed or natural sequence) [ACT-peptide-encoding-polynucleotide, polynucleotide encoding ACT peptide plus GFP, operably linked to a promoter, stably expressed in WB-F344 cells]
repopulation of the scratch injury: inhibited repopulation of the scratch injury
